Measured values as given in patent publication US9115117B2, “Substituted piperidine compounds and their use as orexin receptor modulators” (JANSSEN PHARMACEUTICA NV, priority 2013, dated 2015).
Like-named read-outs stand apart in the source and are kept apart here.

Columns and labels:
[1] = biological target: rat orexin 1 receptor (Rattus norvegicus, UniProt P56718); assay: Rat orexin 1 receptor radioligand binding; settings: HEK293 cells stably expressing rat orexin 1 receptor; apparent Ki; read-out: rOX1 Ki
In short: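 Homogenized cell suspensions competed against 4 nM final of a tritiated oxadiazolyl-pyrrolidinyl thiazole methanone radioligand (35.3 Ci/mmol) in PBS, with DMSO ≤0.1%. Nonspecific binding defined with 10 μM almorexant; after washing and drying, bound radioactivity counted by scintillation.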

[2] = biological target: human orexin 1 receptor (Homo sapiens, UniProt O43613); assay: Human orexin 1 receptor radioligand binding; settings: CHO cells stably expressing human orexin 1 receptor; apparent Ki; read-out: hOX1 Ki
Experimental: The in vitro affinity of the compounds of the invention for the rat/human orexin 1 and human orexin 2 receptors was determined by competitive radioligand binding using [^3H](1-(5-(2-fluoro-phenyl)-2-methyl-thiazol-4-yl)-1-((S)-2-(5-phenyl-(1,3,4)oxadiazol-2-ylmethyl)-pyrrolidin-1-yl)-methanone)(Langmead et al., 2004) and [^3H]EMPA (n-ethyl-2[96-methoxy-pyridin-3-yl)-(toluene-2-sulfonyl)-amino]-N-pyridin-3-ylmethyl acetamide), respectively (Langmead et al., 2004, British Journal of Pharmacology 141:340-346; Malherbe et al., 2004, British Journal of Pharmacology 156:1326-41).
Human Embryonic Kidney 293 cells (HEK293) stably expressing rat orexin 1 receptor (Genebank accession number NM_001525) or Chinese ovary cells (CHO) stably expressing human orexin 1 receptor (Genebank accession number NM_001526) were grown to confluency in DMEM (Hyclone, cat #SH30022), 10% FBS, 1× Pen/Strep, 1× sodium pyruvate, 10 mM HEPES, 600 µg/mL G418 and DMEM/F12 (Gibco, Cat #11039), 10% FBS, 1× Pen/Strep, 600 µg/mL G418 media, respectively on 150 cm^2 tissue culture plates, washed with 5 mM EDTA in PBS (HyClone Dulbecco's Phoshpate Buffered Saline 1× with Calcium and Magnesium, Cat #SH30264.01, hereafter referred to simply as PBS) and scraped into 50 ml tubes. After centrifugation (2K×G, 5 min at 4° C.), the supernatant was aspirated and the pellets frozen and stored at −80° C. Cells were resuspended in PBS in the presence of 1 tablet of protease inhibitor cocktail (Roche, Cat. #11836145001) per 50 mL. Each cell pellet from a 15 cm plate was resuspended in 10 mL, stored on ice, and homogenized for 45 sec prior to addition to the reactions. Competition binding experiments in 96 well polypropylene plates were performed using [^3H]-(1-(5-(2-fluoro-phenyl)-2-methyl-thiazol-4-yl)-1-((S)-2-(5-phenyl-(1,3,4)oxadiazol-2-ylmethyl)-pyrrolidin-1-yl)-methanone) (Moraveck Corporation, specific activity=35.3 Ci/mmol), diluted to a 10 nM concentration in PBS (4 nM final). […] The final concentration of DMSO in the reactions is equal to or less than 0.1%. Total and nonspecific binding was determined in the absence and presence of 10 μM almorexant. The total volume of each reaction is 200 μL (20 μL of diluted compounds, 80 μL of [3H]-(1-(5-(2-fluoro-phenyl)-2-methyl-thiazol-4-yl)-1-((S)-2-(5-phenyl-(1,3,4)oxadiazol-2-ylmethyl)-pyrrolidin-1-yl)-methanone) diluted in PBS and 100 μL of the cell suspension). Reactions were run for 60 min at room temperature and terminated by filtration through GF/C filter plates (PerkinElmer, Cat. #6005174) presoaked in 0.3% polyethylenimine using the cell harvester (PerkinElmer Filtermate). The plates were washed 3 times by aspirating 30 ml PBS through the plates. Plates were dried in 55° C. oven for 60 min, scintillation fluid was added, and the radioactivity was counted on a Topcount (Packard).

[3] = biological target: human orexin 2 receptor (Homo sapiens (Human), UniProt O43614); assay: Human orexin 2 receptor radioligand binding ([3H]-EMPA)
Sequence of human orexin 2 receptor (O43614 whole entry): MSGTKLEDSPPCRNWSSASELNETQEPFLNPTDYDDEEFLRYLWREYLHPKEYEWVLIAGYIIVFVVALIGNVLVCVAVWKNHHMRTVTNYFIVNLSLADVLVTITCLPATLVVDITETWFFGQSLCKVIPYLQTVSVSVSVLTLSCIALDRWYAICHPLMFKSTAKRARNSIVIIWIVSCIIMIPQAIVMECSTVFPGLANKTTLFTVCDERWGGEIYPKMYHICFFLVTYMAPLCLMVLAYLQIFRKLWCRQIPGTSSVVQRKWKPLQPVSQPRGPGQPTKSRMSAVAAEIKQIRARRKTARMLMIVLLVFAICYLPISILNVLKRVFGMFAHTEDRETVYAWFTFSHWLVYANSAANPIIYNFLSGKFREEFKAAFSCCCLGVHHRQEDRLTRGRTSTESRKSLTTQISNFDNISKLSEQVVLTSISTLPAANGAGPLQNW
In short: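 Competition binding with 2 nM final [3H]-EMPA in PBS against homogenized whole-cell suspension; DMSO ≤0.1%. Nonspecific binding defined with […] almorexant. Plates washed with PBS, dried, and bound radioactivity counted by scintillation.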

[4] = HEK293 stably expressing human orexin 2 receptor, [3H]-EMPA, apparent Ki, read-out: hOX2 Ki

Ki [1] [nM]	Ki [2] [nM]	Ki [3, 4] [nM]	Compound	Ki [3] [nM]
7	21	1890	Cc1cnc(C(=O)N2CCC[C@@H](Nc3nc4ccccc4o3)[C@@H]2C)c(-n2nccn2)c1 [Example 73, ((2S,3R)-3-(benzo[d]oxazol-2-ylamino)-2-methylpiperidin-1-yl)(5-methyl-3-(2H-1,2,3-triazol-2-yl)pyridin-2-yl)methanone]	–
54	62	1300	Cc1ccc(C(=O)N2CCC[C@@H](Nc3nc4ccccc4o3)[C@@H]2C)c(-n2ccnn2)n1 [Example 76, ((2S,3R)-3-(benzo[d]oxazol-2-ylamino)-2-methylpiperidin-1-yl)(6-methyl-2-(1H-1,2,3-triazol-1-yl)pyridin-3-yl)methanone]	–
36	55	4020	Cc1cnc(C(=O)N2CCC[C@@H](Nc3ccc(Cl)cn3)[C@@H]2C)c(-c2ncco2)c1 [Example 77, ((2S,3R)-3-((5-chloropyridin-2-yl)amino)-2-methylpiperidin-1-yl)(5-methyl-3-(oxazol-2-yl)pyridin-2-yl)methanone]	–
8	7	1300	Cc1ccc(C(=O)N2CCC[C@@H](Nc3cnc(C(F)(F)F)cn3)[C@@H]2C)c(-n2nccn2)c1 [Example 79, (4-methyl-2-(2H-1,2,3-triazol-2-yl)phenyl)((2S,3R)-2-methyl-3-((5-(trifluoromethyl)pyrazin-2-yl)amino)piperidin-1-yl)methanone]	–
29	24	4900	Cc1cnc(C(=O)N2CCC[C@@H](Nc3ccc(Br)cn3)[C@@H]2C)c(-c2ncco2)c1 [Example 80, ((2S,3R)-3-((5-bromopyridin-2-yl)amino)-2-methylpiperidin-1-yl)(5-methyl-3-(oxazol-2-yl)pyridin-2-yl)methanone]	–
14	23	100	Cc1ccc(-c2ncccn2)c(C(=O)N2CCC[C@@H](Nc3nc4ccccc4o3)[C@@H]2C)n1 [Example 81, ((2S,3R)-3-(benzo[d]oxazol-2-ylamino)-2-methylpiperidin-1-yl)(6-methyl-3-(pyrimidin-2-yl)pyridin-2-yl)methanone]	–
53	58	6400	COc1ccc(C(=O)N2CCC[C@@H](Nc3cnc(C(F)(F)F)cn3)[C@@H]2C)c(-n2nccn2)c1 [Example 82, (4-methoxy-2-(2H-1,2,3-triazol-2-yl)phenyl)((2S,3R)-2-methyl-3-((5-(trifluoromethyl)pyrazin-2-yl)amino)piperidin-1-yl)methanone]	–
57	53	7000	Cc1cnc(C(=O)N2CCC[C@@H](Nc3cnc(C(F)(F)F)cn3)[C@@H]2C)c(-c2ncco2)c1 [Example 83, ((2S,3R)-2-methyl-3-((5-(trifluoromethyl)pyrazin-2-yl)amino)piperidin-1-yl)(5-methyl-3-(oxazol-2-yl)pyridin-2-yl)methanone]	–
23	28	173	Cc1ccc(-c2ncccn2)c(C(=O)N2CCC[C@@H](Nc3cnc(C(F)(F)F)cn3)[C@@H]2C)n1 [Example 84, ((2S,3R)-2-methyl-3-((5-(trifluoromethyl)pyrazin-2-yl)amino)piperidin-1-yl)(6-methyl-3-(pyrimidin-2-yl)pyridin-2-yl)methanone]	–
8	10	210	C[C@H]1[C@H](Nc2cnc(C(F)(F)F)cn2)CCCN1C(=O)c1ccccc1-n1nccn1 [Example 85, (2-(2H-1,2,3-triazol-2-yl)phenyl)((2S,3R)-2-methyl-3-((5-(trifluoromethyl)pyrazin-2-yl)amino)piperidin-1-yl)methanone]	–
213	249	> 10000	Cc1cnc(C(=O)N2CCC[C@@H](Nc3cnc(Cl)cn3)[C@@H]2C)c(-c2ncco2)c1 [Example 86, ((2S,3R)-3-((5-chloropyrazin-2-yl)amino)-2-methylpiperidin-1-yl)(5-methyl-3-(oxazol-2-yl)pyridin-2-yl)methanone]	–
13	25	3300	Cc1cnc(C(=O)N2CCC[C@@H](Nc3nc4ccccc4o3)[C@@H]2C)c(-c2ncco2)c1 [Example 88, ((2S,3R)-3-(benzo[d]oxazol-2-ylamino)-2-methylpiperidin-1-yl)(5-methyl-3-(oxazol-2-yl)pyridin-2-yl)methanone]	–
14	10	371	COc1ccc(-n2nccn2)c(C(=O)N2CCC[C@@H](Nc3ncc(C(F)(F)F)cn3)[C@@H]2C)c1 [Example 89, (5-methoxy-2-(2H-1,2,3-triazol-2-yl)phenyl)((2S,3R)-2-methyl-3-((5-(trifluoromethyl)pyrimidin-2-yl)amino)piperidin-1-yl)methanone]	–
20	19	486	C[C@H]1[C@H](Nc2cnc(C(F)(F)F)cn2)CCCN1C(=O)c1cc(F)ccc1-n1nccn1 [Example 90, (5-fluoro-2-(2H-1,2,3-triazol-2-yl)phenyl)((2S,3R)-2-methyl-3-((5-(trifluoromethyl)pyrazin-2-yl)amino)piperidin-1-yl)methanone]	–
32	48	2100	Cc1ccc(C(=O)N2CCC[C@@H](Nc3ncc(Cl)cn3)[C@@H]2C)c(-n2nccn2)c1 [Example 91, ((2S,3R)-3-((5-chloropyrimidin-2-yl)amino)-2-methylpiperidin-1-yl)(4-methyl-2-(2H-1,2,3-triazol-2-yl)phenyl)methanone]	–
19	18	4200	Cc1cnc(C(=O)N2CCC[C@@H](Nc3ccc(Br)cn3)[C@@H]2C)c(-n2nccn2)c1 [Example 92, ((2S,3R)-3-((5-bromopyridin-2-yl)amino)-2-methylpiperidin-1-yl)(5-methyl-3-(2H-1,2,3-triazol-2-yl)pyridin-2-yl)methanone]	–

Compound	Ki [1] [nM]	Ki [2] [nM]	Ki [3, 4] [nM]	Ki [3] [nM]
Cc1cnc(C(=O)N2CCC[C@@H](Nc3cnc(C(F)(F)F)cn3)[C@@H]2C)c(-n2nccn2)c1 [Example 72, ((2S,3R)-2-methyl-3-((5-(trifluoromethyl)pyrazin-2-yl)amino)piperidin-1-yl)(5-methyl-3-(2H-1,2,3-triazol-2-yl)pyridin-2-yl)methanone]	24	33	4020	–
Cc1ccc(C(=O)N2CCC[C@@H](Nc3cnc(C(F)(F)F)cn3)[C@@H]2C)c(-n2nccn2)n1 [Example 74, (6-methyl-2-(2H-1,2,3-triazol-2-yl)pyridin-3-yl)((2S,3R)-2-methyl-3-((5-(trifluoromethyl)pyrazin-2-yl)amino)piperidin-1-yl)methanone]	40	52	–	> 10000
Cc1ccc(C(=O)N2CCC[C@@H](Nc3nc4ccccc4o3)[C@@H]2C)c(-n2nccn2)n1 [Example 75, ((2S,3R)-3-(benzo[d]oxazol-2-ylamino)-2-methylpiperidin-1-yl)(6-methyl-2-(2H-1,2,3-triazol-2-yl)pyridin-3-yl)methanone]	23	40	9500	–
Cc1ccc(-c2ncccn2)c(C(=O)N2CCC[C@@H](Nc3ncc(C(F)(F)F)cn3)[C@@H]2C)n1 [Example 78, ((2S,3R)-2-methyl-3-((5-(trifluoromethyl)pyrimidin-2-yl)amino)piperidin-1-yl)(6-methyl-3-(pyrimidin-2-yl)pyridin-2-yl)methanone]	30	57	436	–
